According to patent publication US12582681B2, “Fermented milk product for administration in canids such as dogs, and uses thereof” (priority 2019, dated 2026):
Values after ≈ are worked out from the molar mass of the structure shown. Like-named read-outs stand apart in the source and are kept apart here.

Legend:
[1] = test system: Lactobacillus reuteri CECT 9859; experiment: Broth microdilution MIC (MRS and LSM medium); assay type: cell-based; details: for Category (LSM) / Category (MRS): against EFSA (2018) breakpoints; as to Category (LSM): key: S, susceptible; R, resistant; as to Category (MRS): key: S, susceptible; R, resistant
S. aureus ATCC25923 = experiment: Broth microdilution MIC, control strain; assay type: cell-based; details: for Category: against CLSI values; as to Category: key: S, susceptible; R, resistant
[2] = Limosilactobacillus reuteri, CECT9859, 24 h, LSM medium, anaerobic, 37° C., 24 h, read-out: MIC
[3] = Limosilactobacillus reuteri, CECT9859, 24 h, MRS medium, anaerobic, 37° C., 24 h, read-out: MIC
[4] = Staphylococcus aureus, ATCC25923, MH medium, control strain, read-out: MIC
[5] = Staphylococcus aureus, ATCC25923

CC1(C)S[C@@H]2[C@H](NC(=O)[C@H](N)c3ccccc3)C(=O)N2[C@H]1C(=O)O [Ampicillin]
Category (LSM) ([1]; LSM medium): S
MIC [1, 2]: 0.25 µg/mL (≈ 0.715 µM)
MIC [1, 3]: 0.25 µg/mL (≈ 0.715 µM)
Category (MRS) ([1]; MRS medium): S
Category (S. aureus ATCC25923; MH medium): S
MIC (S. aureus ATCC25923; [4]): 0.125 µg/mL (≈ 0.358 µM)

NC[C@H]1O[C@H](O[C@H]2[C@H](O)[C@@H](O[C@H]3O[C@H](CO)[C@@H](O)[C@H](N)[C@H]3O)[C@H](N)C[C@@H]2N)[C@H](O)[C@@H](O)[C@@H]1O [Kanamycin]
Category (LSM) ([1]; LSM medium): S
MIC [1, 2]: 64 µg/mL (≈ 132 µM)
MIC [1, 3]: 512 µg/mL (≈ 1060 µM)
Category (MRS) ([1]; MRS medium): R
Category (S. aureus ATCC25923; MH medium): S
MIC (S. aureus ATCC25923; [4]): 2 µg/mL (≈ 4.13 µM)

Gentamicin
Category (LSM) ([1]; LSM medium): S
MIC ([1]; LSM medium, anaerobic, 37° C., 24 h): 2 µg/mL
Category (MRS) ([1]; MRS medium): R
MIC ([1]; MRS medium, anaerobic, 37° C., 24 h): 16 µg/mL
Category (S. aureus ATCC25923; MH medium): S
MIC (S. aureus ATCC25923; MH medium, control strain): 0.125 µg/mL

CN(C)[C@@H]1C(O)=C(C(N)=O)C(=O)[C@@]2(O)C(O)=C3C(=O)c4c(O)cccc4[C@@](C)(O)[C@H]3C[C@@H]12 [Tetracycline]
Category (LSM) ([1]; LSM medium): S
MIC [1, 2]: 8 µg/mL (≈ 18 µM)
MIC [1, 3]: 4 µg/mL (≈ 9 µM)
Category (MRS) ([1]; MRS medium): S
Category (S. aureus ATCC25923; MH medium): S
MIC (S. aureus ATCC25923; [4]): 1 µg/mL (≈ 2.25 µM)

CN[C@H](CC(C)C)C(=O)N[C@H]1C(=O)N[C@@H](CC(N)=O)C(=O)N[C@H]2C(=O)N[C@H]3C(=O)N[C@H](C(=O)N[C@H](C(=O)O)c4cc(O)cc(O)c4-c4cc3ccc4O)[C@H](O)c3ccc(c(Cl)c3)Oc3cc2cc(c3O[C@@H]2O[C@H](CO)[C@@H](O)[C@H](O)[C@H]2O[C@H]2C[C@](C)(N)[C@H](O)[C@H](C)O2)Oc2ccc(cc2Cl)[C@H]1O [Vancomycin]
Category (LSM) ([1]; LSM medium): R
MIC [1, 2]: 512 µg/mL (≈ 353 µM)
MIC [1, 3]: > 512 µg/mL
Susceptibility of the strain ([1]; MRS and LSM): resistant
Category (MRS) ([1]; MRS medium): R
Category (S. aureus ATCC25923; MH medium): S
MIC (S. aureus ATCC25923; [5]): 1 µg/mL (≈ 0.69 µM)

CCC[C@@H]1C[C@@H](C(=O)N[C@@H]([C@H]2O[C@H](SC)[C@H](O)[C@@H](O)[C@H]2O)[C@H](C)Cl)N(C)C1 [Clindamycin]
Category (LSM) ([1]; LSM medium): S
MIC [1, 2]: 0.25 µg/mL (≈ 0.588 µM)
MIC [1, 3]: 0.25 µg/mL (≈ 0.588 µM)
Category (MRS) ([1]; MRS medium): S
Category (S. aureus ATCC25923; MH medium): S
MIC (S. aureus ATCC25923; [5]): 0.125 µg/mL (≈ 0.294 µM)

O=C(N[C@H](CO)[C@H](O)c1ccc([N+](=O)[O-])cc1)C(Cl)Cl [Chloramphenicol]
Category (LSM) ([1]; LSM medium): S
MIC [1, 2]: 4 µg/mL (≈ 12.4 µM)
MIC [1, 3]: 4 µg/mL (≈ 12.4 µM)
Category (MRS) ([1]; MRS medium): S
Category (S. aureus ATCC25923; MH medium): S
MIC (S. aureus ATCC25923; [4]): 4 µg/mL (≈ 12.4 µM)

CC[C@H]1OC(=O)[C@H](C)[C@@H](O[C@H]2C[C@@](C)(OC)[C@@H](O)[C@H](C)O2)[C@H](C)[C@@H](O[C@@H]2O[C@H](C)C[C@H](N(C)C)[C@H]2O)[C@](C)(O)C[C@@H](C)C(=O)[C@H](C)[C@@H](O)[C@]1(C)O [Erythromycin]
Category (LSM) ([1]; LSM medium): S
MIC ([1]; Limosilactobacillus reuteri, CECT9859, 24 h): 0.125 µg/mL (≈ 0.17 µM)
MIC [1, 3]: 0.25 µg/mL (≈ 0.341 µM)
Category (MRS) ([1]; MRS medium): S
Category (S. aureus ATCC25923; MH medium): S
MIC (S. aureus ATCC25923; [5]): 0.125 µg/mL (≈ 0.17 µM)

[H]/N=C(/N)N[C@H]1[C@H](O)[C@@H](O)[C@H](O[C@@H]2O[C@@H](C)[C@](O)(C=O)[C@H]2O[C@@H]2O[C@@H](CO)[C@H](O)[C@@H](O)[C@@H]2NC)[C@@H](N/C(N)=N\[H])[C@@H]1O [Streptomycin]
Category (LSM) ([1]; LSM medium): S
MIC [1, 2]: 16 µg/mL (≈ 27.5 µM)
MIC [1, 3]: 128 µg/mL (≈ 220 µM)
Category (MRS) ([1]; MRS medium): R
MIC (S. aureus ATCC25923; [4]): 2 µg/mL (≈ 3.44 µM)
